# Test results from patent US4039540A, “3-Substituted quinoxaline-2-carboxamide-1,4-dioxides” (Pfizer Inc., priority 1975, dated 1977).
# Where two headings read alike, the source gives them in different places.
# Tests used:
# pathogenic bacteria = experiment: in vivo activity in infected mice, last four lines of the table; details: bacterium and dose in drawing 28, not readable; for IN VIVO number of survivors among the treated animals (head drawing 28): subcutaneous
# Description: (§1) In determining the in vivo activity of the quinoxaline-1,4-dioxides of this invention, the test compound is administered to mice which have been infected by […] injection of a lethal inoculum of pathogenic bacteria. The test compound is administered using a multiple dosing regimen and using either the oral (PO) or the subcutaneous (SC) route. The inoculum of bacteria varies from about 1 to about 10 times the amount needed to kill 100% of the mice under the conditions of the test. At the end of the test, the activity of the compound is assessed by counting the number of survivors among the treated animals.
# (§2) In vitro and in vivo activity of representative compounds of this invention, determined as aforesaid, are reported in the following tabulation for compounds of the formula: [drawing 12]
# Strep. pyrogens = experiment: in vitro antibacterial activity, two-fold serial dilution in Brain-Heart Infusion Broth (MIC); assay type: cell-based; details: overnight, anaerobic
# Description: (§3) The broth is inoculated with bacteria and with the test quinoxaline-1,4-dioxide and then it is incubated overnight under anerobic conditions. On the next day, the test is read visually. The minimum inhibitory concentration (MIC) of test compound is the lowest concentration which prevents turbidity, i.e., which prevents growth of the microorganism.
# as §2
# E. coli [1] = experiment: as above; assay type: cell-based; details: Escherichia coli, overnight, anaerobic
# Description: as §3, §2
# Strep. pyogenes = experiment: in vivo activity in mice infected with a lethal inoculum of Strep. pyogenes; details: Streptococcus pyogenes, multiple dosing
# Description: as §1, §2
# E. coli [2] = experiment: in vivo activity in mice infected with a lethal inoculum of E. coli; details: Escherichia coli, sc, subcutaneous, multiple dosing, read-out: IN VIVO E. coli, number of survivors among the treated animals
# Description: as §1, §2
# [3] = oral, read-out: IN VIVO Strep. pyogenes, number of survivors among the treated animals, PO (data in parenthesis)
# [4] = sc, subcutaneous, read-out: IN VIVO Strep. pyogenes, number of survivors among the treated animals
Compound,"IN VIVO number of survivors among the treated animals, PO (data in parenthesis; head drawing 28) (pathogenic bacteria)",IN VIVO number of survivors among the treated animals (head drawing 28) (pathogenic bacteria),MIC (Strep. pyrogens),MIC (E. coli [1]),responders at 50 mg/kg (Strep. pyogenes; [3]),responders at 50 mg/kg (Strep. pyogenes; [4]),responders at 25 mg/kg (E. coli [2])
CN(C)C(=O)c1c(CS(=O)(=O)CCCCN2CCCCC2)[n+]([O-])c2ccccc2[n+]1[O-] [N(CH3)2; drawing 30; H],1/10,8/10,6.25 µg/mL,12.5 µg/mL,,,
NC(=O)c1c(CS(=O)(=O)CCCCN2CCCCC2)[n+]([O-])c2ccccc2[n+]1[O-] [NH2; drawing 31; H],0/10,9/10,12.5 µg/mL,25 µg/mL,,,
O=C(NCCO)c1c(CS(=O)(=O)CCO)[n+]([O-])c2ccccc2[n+]1[O-] [NHCH2 CH2 OH; SO2 CH2 CH2 OH; H],,,25 µg/mL,100 µg/mL,10%,30%,10%
O=C(NCCO)c1c(CS(=O)(=O)CCCN2CCCCC2)[n+]([O-])c2ccccc2[n+]1[O-] [NHCH2 CH2 OH; drawing 22; H],,,50 µg/mL,25 µg/mL,20%,100%,20%
CCSCCNC(=O)c1c(CS(=O)(=O)CCO)[n+]([O-])c2ccccc2[n+]1[O-] [NHCH2 CH2 SCH2 CH3; SO2 CH2 CH2 OH; H],,,1.56 µg/mL,100 µg/mL,0%,10%,50%
CCNC(=O)c1c(CSCCCOC(C)=O)[n+]([O-])c2ccccc2[n+]1[O-] [NHCH2 CH3; SCH2 CH2 CH2 OAc; H],,,3.12 µg/mL,25 µg/mL,20%,10%,0%
CCNC(=O)c1c(CSCCO)[n+]([O-])c2ccccc2[n+]1[O-] [NHCH2 CH3; SCH2 CH2 OH; H],,,3.12 µg/mL,6.25 µg/mL,20%,20%,40%
CCNC(=O)c1c(CS(=O)(=O)CCCN(C)C)[n+]([O-])c2ccccc2[n+]1[O-] [NHCH2 CH3; SO2 (CH2)3 N(CH3)2; H],,,1.56 µg/mL,12.5 µg/mL,100%,100%,100%
CCNC(=O)c1c(CS(=O)(=O)CCCO)[n+]([O-])c2ccccc2[n+]1[O-] [NHCH2 CH3; SO2 CH2 CH2 CH2 OH; H],,,< 0.39 µg/mL,6.25 µg/mL,20%,80%,10%
CCNC(=O)c1c(CS(=O)(=O)CCCN2CCOCC2)[n+]([O-])c2ccccc2[n+]1[O-] [NHCH2 CH3; drawing 17; H],,,12.5 µg/mL,25 µg/mL,80%,100%,60%
CCNC(=O)c1c(CS(=O)(=O)CCCN2CCCCC2)[n+]([O-])c2ccccc2[n+]1[O-] [NHCH2 CH3; drawing 26; H],,,3.12 µg/mL,12.5 µg/mL,90%,100%,60%
CCNC(=O)c1c(CS(=O)(=O)CCCCN2CCCCC2)[n+]([O-])c2ccccc2[n+]1[O-] [NHCH2 CH3; drawing 32; H],7/10,4/10,6.25 µg/mL,12.5 µg/mL,,,
O=C(NCC(O)CO)c1c(CS(=O)(=O)CCO)[n+]([O-])c2ccccc2[n+]1[O-] (centres unmarked) [NHCH2 CHOHCH2 OH; SO2 CH2 CH2 OH; H],,,6.25 µg/mL,200 µg/mL,70%,40%,0%
CC(O)CNC(=O)c1c(CS(=O)(=O)CCO)[n+]([O-])c2ccccc2[n+]1[O-] (centres unmarked) [NHCH2 CHOHCH3; SO2 CH2 CH2 OH; H],,,12.5 µg/mL,100 µg/mL,10%,0%,20%
CCOC(=O)CSCc1c(C(=O)NC)[n+]([O-])c2ccccc2[n+]1[O-] [NHCH3; SCH2 CO2 Et; H],,,12.5 µg/mL,12.5 µg/mL,0%,0%,30%
CCN(CC)CCCS(=O)(=O)Cc1c(C(=O)NC)[n+]([O-])c2ccccc2[n+]1[O-] [NHCH3; SO2 (CH2)3 N(CH2 CH3)2; H],,,12.5 µg/mL,25 µg/mL,0%,80%,40%
CNC(=O)c1c(CS(=O)(=O)CCCN(C)C)[n+]([O-])c2ccccc2[n+]1[O-] [NHCH3; SO2 (CH2)3 N(CH3)2; H],,,3.12 µg/mL,6.25 µg/mL,,100%,100%
CNC(=O)c1c(CS(=O)(=O)CCOC(C)=O)[n+]([O-])c2ccccc2[n+]1[O-] [NHCH3; SO2 CH2 CH2 OAc; H],,,< 0.391 µg/mL,3.12 µg/mL,70%,90%,80%
CNC(=O)c1c(CS(=O)(=O)CCO)[n+]([O-])c2ccccc2[n+]1[O-] [NHCH3; SO2 CH2 CH2 OH; H],,,1.56 µg/mL,0.781 µg/mL,40%,80%,100%
CNC(=O)c1c(CS(=O)(=O)CCCN2CCOCC2)[n+]([O-])c2ccccc2[n+]1[O-] [NHCH3; drawing 18; H],,,25 µg/mL,25 µg/mL,70%,100%,0%
CNC(=O)c1c(CS(=O)(=O)CCCN2CCCCC2)[n+]([O-])c2ccccc2[n+]1[O-] [NHCH3; drawing 23; H],,,6.25 µg/mL,6.25 µg/mL,70%,100%,100%
CNC(=O)c1c(CS(=O)(=O)CCCCN2CCCCC2)[n+]([O-])c2ccccc2[n+]1[O-] [NHCH3; drawing 29; H],7/10,10/10,6.25 µg/mL,12.5 µg/mL,,,
CCC(CO)NC(=O)c1c(CS(=O)(=O)CCO)[n+]([O-])c2ccccc2[n+]1[O-] (centres unmarked) [NHCHEtCH2 OH; SO2 CH2 CH2 OH; H],,,3.12 µg/mL,200 µg/mL,80%,0%,10%
CCNC(=O)c1c(CS(=O)(=O)CCO)[n+]([O-])c2ccccc2[n+]1[O-] [NHEt; SO2 CH2 CH2 OH; H],,,1.56 µg/mL,6.25 µg/mL,80%,60%,90%
CNC(=O)c1c(CSCCCO)[n+]([O-])c2ccccc2[n+]1[O-] [NHMe; SCH2 CH2 CH2 OH; H],,,1.56 µg/mL,12.5 µg/mL,10%,0%,20%
CNC(=O)c1c(CSCCO)[n+]([O-])c2ccccc2[n+]1[O-] [NHMe; SCH2 CH2 OH; H],,,0.781 µg/mL,0.781 µg/mL,60%,100%,100%
CNC(=O)c1c(CS(=O)(=O)CCCO)[n+]([O-])c2ccccc2[n+]1[O-] [NHMe; SO2 CH2 CH2 CH2 OH; H],,,3.12 µg/mL,12.5 µg/mL,30%,90%,70%
CCCNC(=O)c1c(CSCCO)[n+]([O-])c2ccccc2[n+]1[O-] [NHPr; SCH2 CH2 OH; H],,,6.25 µg/mL,25 µg/mL,30%,50%,20%
CCCNC(=O)c1c(CS(=O)(=O)CCO)[n+]([O-])c2ccccc2[n+]1[O-] [NHPr; SO2 CH2 CH2 OH; H],,,3.12 µg/mL,3.12 µg/mL,70%,40%,20%
